The record followed here is EP0419081A2, “Method for protein binding enzyme complementation assays” (MICROGENICS CORPORATION, priority 1989, dated 1991).

The subject of one data set is EA23. As for the experimental part:
This example illustrates an immunoassay for thyroxine as analyte using H6-thyroxine conjugate as enzyme-donor, EA23 as enzyme-acceptor, anti-thyroxine antibody and a series of concentrations of thyroxine.
Reagents for the assay were prepared as follows: L-thyroxine standard: 2.6 mg L-thyroxine (Sigma Chemical, St. Louis, MO) was dissolved in 200 µl absolute ethanol and 800 µl 0.15M NaHCO₃ added and the mixture stored at 25°C. Two fold dilutions of thyroxine were prepared in ethanol: 0.15M NaHCO₃ (1:4). L-thyroxine antibody: Antisera to thyroxine (T4) was purchased from Western Chemical Research Corp., Denver, CO. Several lots were tested for titer and an equilibrium constant determined in a radio-immunoassay with IgM Sorb (Enzyme Center, Malden, MA). […] EA23 acceptor-enzyme: 6.3X10-⁷M in storage buffer. Substrate: o-nitrophenyl-β-D-galactopyranoside (ONPG) was dissolved in 2.5 X Z buffer to a final concentration 10 mg/ml solution.
The assay was performed in microtiter plates (Dynatech Cat. #001-012-9200 American Scientific Products, Sunnyvale, CA) and read on a Titertak Multiscan microtiter plate reader fitted with a 414 nm filter (Flow Laboratories, Rockville, MO). To each well was added 100 µl of PM2 buffer containing 0.05% Tween 20 (polyoxyethylene sorbitan monolaurate) (Sigma Chemical Co., St. Louis, MO). To each well was added sequentially 2.5 µl H6-thyroxine conjugate, 2.5 µl of anti-thyroxine antibody, 2.5 µl of the thyroxine standards and 40 µl of EA23.

The test system of another data set is anti-T4 antibody. Description: Affinity constant by ED titration, Scatchard plot, T4 conjugates. As to conditions: ED titration against fixed anti-T4 Ab, no secondary antibody. The format is binding. Here is the method:
The Ka was determined as follows: To determine the affinity constant of an antibody for an experimental ED conjugate, an ED titration against a fixed antibody is carried out. Antibody binding to the conjugated ED is monitored by inhibition of formation of active enzyme as indicated by a decrease in chromogenic substrate turnover. The resulting data is plotted in a Scatchard format (Bound/Free vs. [Bound]). The slope of the line generated is equal to ∼KA in L/mole.

Data set [1] relates to anti-T4 antibody (T4-pool 393A). Description: Immunochemical testing on the Encore, T4 conjugates. The format is biochemical. Here is the method: The immunochemical testing was performed on the Encore. […] The ligand concentrations employed are indicated in the legend to the table. The ED and antibody were preincubated on the rotor for 15 min at 37°C. All antibody concentrations were assayed in duplicate. No correction was made for variations of total protein in the assays.

Another data set deals with EA. Description: Equilibrium specific activity. The format is biochemical. As to conditions: ED and EA incubated together for 18 hours.
Data set [2] deals with analyte specific antiserum. The data set can be described thus: Immunopurity by precipitation of the enzyme donor conjugate with antibody. Format: binding. As to conditions: % of ED conjugate activity which can be removed by analyte specific antiserum.
Method: Immunopurity was determined by precipitation of the enzyme donor conjugate with anti-T4 antibody TgG Sorbheads. The ED is incubated with primary antibody at room temperature for 15 min on a rocker shaker. Secondary antibody is added and incubation continued for 15 min. The suspension is centrifuged and an aliquot of the supernatant is saved for the assay. The above cycle is repeated on the remaining supernatant for a total of five cycles. […] The ED concentration during incubation is 20 nM. Assay concentrations are EA 500 nM; ED, 4 nM; and ONPG, 1mg/ml. Immunopurity is expressed as percent of ED activity precipitable by primary antibody.
The target in the next data set is T1, FBP (Bos taurus, UniProt P02702).
T1 construct: purchased Scripps
T1 sequence (P02702 20-234): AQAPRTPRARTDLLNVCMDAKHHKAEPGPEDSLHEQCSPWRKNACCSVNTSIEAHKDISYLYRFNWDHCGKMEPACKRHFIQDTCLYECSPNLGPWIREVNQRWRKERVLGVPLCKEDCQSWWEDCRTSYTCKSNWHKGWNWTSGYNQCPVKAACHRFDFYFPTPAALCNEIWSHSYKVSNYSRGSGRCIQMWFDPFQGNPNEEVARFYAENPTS
The data set can be described thus: Folate dose response. The format is biochemical. As to conditions: for 5′- 9′: rate OD₄₂₀ 5 to 9 min, FBP 1:1000, ED14-folate #34. As for the experimental part: The following buffer systems and reagents were used and will be abbreviated as stated below: • 1. Sample buffer; 100 mM sodium phosphate, 20 mM sodium azide and 0.2% BSA. • 2. Assay buffer pH 7.0; 10 mM ethylene glycol tetraacetic acid, 2 mM magnesium acetate, 20 mM sodium azide, 150 mM sodium phosphate, 100 mM potassium phosphate, 0.05% Tween 20, 0.05 mM dithiothreitol, adjusted to pH 7.0. • 3. EA; enzyme acceptor • 4. ED; enzyme donor • 5. FBP Scripps; folate binding protein from Scripps 2.25 mg/ml stock • 6. CPRG; chlorophenol red β-D galactopyranoside • 7. ONPG: 2-nitrophenol β-D galactopyranoside
A folate dose response was elicited as follows. The following reagents were prepared; EA at a concentration of 3750 nM in Assay buffer p8 7.0, ED14-folate (fraction #34) at a concentration of 26.66 nM in Assay/ONPG buffer pH 7.0, FBP at a dilution of 1:1000 in sample buffer and folic acid standards at 0, 2.5, 5.0, 10.0 and 20.0 ng/ml in sample buffer. […] Rates were calculated by subtracting the OD₄₂₀ at 5 min from the OD₄₂₀ at 9 min.

Like-named read-outs stand apart in the source and are kept apart here.

With “m-maleimide-benzoyl-L-Thyroxine-ED₄ conjugate [ED4T4]”, the OD₄₁₅ is recorded as 0.001 in the data set on EA23 (Well 2: ED₄-T4 2.5 µl only, no EA); 0.595 in the data set with EA23 (Well 3: ED₄-T4 2.5 µl, EA 40 µl); 0.300 in the data set with EA23 (Well 4: ED₄-T4 2.5 µl, Antibody 2.5 µl, EA 40 µl); 0.312 in the data set on EA23 (Well 5: ED₄-T4 2.5 µl, Antibody 2.5 µl, Thyroxine 6.25 µg/µl, EA 40 µl); 0.320 in the data set with EA23 (Well 6: ED₄-T4 2.5 µl, Antibody 2.5 µl, Thyroxine 12.5 µg/µl, EA 40 µl); 0.364 in the data set on EA23 (Well 7: ED₄-T4 2.5 µl, Antibody 2.5 µl, Thyroxine 25 µg/µl, EA 40 µl). The “Ka (L/mole) x10-9” value in the data set on anti-T4 antibody is recorded as 1.97 L/mole x10-9. For the same compound, in data set [1] (T4-pool 393A at 1:12,000, ED titrated until one-half of Ab binding sites saturated, no secondary antibody), the “Immunochemical Testing %I 1/2Sat” value was found to be 34%. Besides, the “Immunochemical Testing (0.125 nM Sys [ED])” value in data set [1] (maximum amount of complementation inhibition, ED system concentration 0.125 nM, Ab constant) is on record as 47%. Also, the “Specific Activity (u/mg) (% ED4-T4) Equilibrium” value in the data set on EA turned out to be 100%. Moreover, the Immuno-Purity in data set [2] is on record as 96%.

In the case of `Nc1nc2ncc(CNc3ccc(C(=O)N[C@@H](CCC(=O)O)C(=O)O)cc3)nc2c(=O)[nH]1` [folic acid], the entries for the “% Mod” value on FBP (folic acid standard 5.0 ng/ml), at FBP (folic acid standard 10.0 ng/ml) and on FBP (folic acid standard 20.0 ng/ml) were 13.4%, 24.1% and 40.0%, respectively. Besides, the Net is on record as 52 at FBP (folic acid standard 5.0 ng/ml), 107 on FBP (folic acid standard 10.0 ng/ml) and 2255 at FBP (folic acid standard 20.0 ng/ml). Further, the “5′- 9′” value on FBP (folic acid standard 5.0 ng/ml) came out at 388.5; on FBP (folic acid standard 10.0 ng/ml) it was 443.5; on FBP (folic acid standard 20.0 ng/ml) it was 562.
